This is an account of results in EP3778613A1, “THIRD GENERATION DENDRIMER, PROCESS FOR PRODUCTION THEREOF AND USE THEREOF” (Consejo Superior de Investigaciones Científicas (CSIC), priority 2019, dated 2021).

Assay [1] can be described thus: Kinetics of reduction of PROXYL with ascorbate, followed by EPR. The class given is physicochemical. The conditions noted are these: nitroxide reduction with sodium ascorbate (10-fold excess per PROXYL unit), 100 mM PB pH 7.4, 300 K. The text has this:
Electronic Paramagnetic Resonance Spectroscopy (EPR) spectra were obtained with an X-Band (9.4 GHz) Bruker ELEXSYS 500 spectrometer equipped with a TE102 microwave cavity, a Bruker variable temperature unit, a field frequency lock system Bruker ER 033 M and equipped with a NMR Gaussmeter Bruker ER 035 M. The modulation amplitude was kept well below the line width, and the microwave power was well below saturation. All samples were previously degassed with Ar. Experiments in aqueous phase were carried out with a quartz flat cell.
Kinetics of reduction of PROXYL with ascorbate. All the solutions were freshly prepared in 100 mM phosphate buffer, pH 7.4. […]
The effect of the dendritic scaffold on nitroxyl rate of reduction was investigated under pseudo-first-order conditions, using a 10-fold excess of sodium ascorbate per PROXYL unit in 100 mM PB pH 7.4 at 300 K. The reduction was monitored by EPR spectroscopy following the decrease of the area under the spectra as a function of time (Figure 4a). As reference, the rate of reduction of 3-carboxy-PROXYL was determined under identical conditions. […] Rate constants were determined by EPR spectroscopy following the decrease of the area under the spectra as a function of time.

Assay [2] in a line: Relaxometric measurements (r1, r2 relaxivity) by MRI at 7 T. To be noted: 100 mM phosphate buffer pH 7.4, 300K. How it is done:
Magnetic Resonance Imaging (MRI) experiments were carried out in a BioSpec 70/30 Bruker system using a 7.0 T horizontal-bore superconducting magnet equipped with actively shielded gradients (B-GA12 gradient coil inserted into a B-GA20S gradient system). A quadrature 72 mm inner diameter volume coil was used for in vitro studies.
Relaxometric measurements. Longitudinal (r1) and transverse (r2) relaxivities were determined per concentration of PROXYL units. […] The software used for the calculations of T1 and T2 relaxations was Paravision 6.0 (Bruker Software). r1 relaxivity. Series of axial T1-weighted (T1W) images were acquired for each concentration of PROXYL to obtain T1 maps based on a magnetization saturation experiment and the following parameters: repetition time (TR) = 70-6000 ms, echo time (TE) = 9.2 ms, field of view (FOV) = 2.5 x 2.5 cm, averages (Av) = 1, acquisition matrix (Mtx) = 128 x 128. The T1 values were calculated from the mean signal in the region of interest (ROI) for each repetition time, adjusted to the equation: S = S0 [1 - […]]. r2 relaxivity. T2 maps were calculated from multi spin echo images with a TR of 2 s. 25 echo images were acquired with a TE of 8.02 ms, which was the interval time between echo images acquisitions, too. […] The T2 values were calculated from mean signal in the ROI for each echo image, adjusted according to the equation: S = S0 […]]. […]

For assay [3] the following is noted: r.t. 7T, reference value for the clinical Gd contrast agent; cited from earlier work.

For `CC1(C)CC(C(=O)O)C(C)(C)N1[O]` (stereo not shown) [3-carboxy PROXYL, 3-carboxy-PROXYL], the “Initial stage k (M^-1s^-1) x 10^3” value in assay [1] is recorded as 11.2 M^-1s^-1 x 10^3. The “r1^7T” value in assay [2] (longitudinal relaxivity per unit of nitroxyl radical) was found to be 0.20 ± 0.014 mM⁻¹ s⁻¹. Further, in assay [2] (transverse relaxivity per unit of nitroxyl radical), the “r2^7T” value came out at 0.23 ± 0.06 mM⁻¹ s⁻¹.
For the compound `O=C([O-])CN(CCN(CC(=O)[O-])CC(=O)O)CCN(CC(=O)[O-])CC(=O)O.[Gd+3]` [Gd-DTPA], the relaxivity in assay [3] is 3.2 s⁻¹ mM⁻¹.
